Results as given in patent US20250340519A1, “RADIOLABELLED COMPOUND” (OXFORD UNIVERSITY INNOVATION LIMITED, priority 2018, published 2025).

Key:
U87MG and U251MG cells = assay: Blocking of 18F-olaparib uptake in U87MG and U251MG cells; format: cell-based; conditions: 100 μM cold olaparib vs 1 μM ^18F-olaparib
Method: Olaparib (1) was used at various concentrations to block 1 μM of the radiolabelled isotopologue, ^18F-olparib (compound 3); see FIG. 26.

[1] = system: U87MG and U251MG xenografts; assay: 18F-olaparib biodistribution in U87MG and U251MG tumour xenograft mouse models; format: in vivo, Balb/c nude mice; conditions: 20 μg cold olaparib prior to 1 μg ^18F-olaparib, tail vein
Method: U87MG and U251MG xenografts were generated in Balb/c nude mice. The xenograft models were administered various doses (0.5, 1.0, 4.0, and 8.0 μg) of ^18F-olaparib by tail vein injection. At 60-120 min post-injection, mice were sacrificed and organs were collected for biodistribution; see FIGS. 27(a) and (b), and FIG. 28(a). […] We predicted that the uptake for the U251MG xenografts would be greater, but in vivo there is no significant difference between the % ID/g for the U251MG or U87MG xenograft tumours.
A 20-fold excess of cold olaparib was injected via tail vein 60 m prior to 1 μg of ^18F-olaparib via tail vein. The mice were sacrificed at 60-120 min post-injection and organs were harvested.

[2] = female mice, intravenous bolus 20 mg/kg; cited from earlier work
PANC-1 cells = assay: Cell uptake of [18F]olaparib in PANC-1 cells; format: cell-based, human; conditions: excess of unlabelled inhibitor
Method: PARP1 levels in a limited selection of PDAC cell lines were determined using Western blot and confirmed by immunofluorescence microscopy. […] Uptake was reported as a percentage of the total amount added, per mg of total protein recovered from the isolated cells, determined by BCA assay. Specificity of uptake was determined by blocking olaparib binding sites using an excess of cold, unlabeled olaparib, or other PARP inhibitors (rucaparib, talazoparib).
Cell uptake of ^18F-olaparib in Panc-1, MiaPaCa-2 and Capan-1 cells was determined as previously described (Cornelissen, B., Hu, M., McLarty, K., Costantini, D. & Reilly, R. M.
Cellular penetration and nuclear importation properties of 111In-labeled and 123I-labeled HIV-1 tat peptide immunoconjugates in BT-474 human breast cancer cells. Nucl Med Biol 34, 37-46, 2007; Thurber, G. M., Reiner, T., Yang, K. S., Kohler, R. H. & Weissleder, R. Effect of small-molecule modification on single-cell pharmacokinetics of PARP inhibitors. Molecular cancer therapeutics 13, 986-995, 2014; Reiner, T., et al. Imaging therapeutic PARP inhibition in vivo through bioorthogonally developed companion imaging agents. Neoplasia 14, 169-177, 2012). Aliquots of Panc-1, MiaPaca-2, and Capan-1 cells (1.5×10^5 cells/well) were seeded in 24-well plates in warm cell culture medium (500 μL) and the cells were allowed to adhere overnight. Cells were irradiated (10 Gy; dose rate 0.8 Gy/min) or sham-irradiated and then returned to an incubator (37° C., 5% CO2) for 2 h. […] In the blocking groups, non-radioactive olaparib, talazoparib, or rucaparib were also added in increasing concentrations (10 pM-10 μM. After 30 or 60 minutes, the cell culture medium was removed and combined with two washes (500 μL) of cell culture medium. The remaining monolayer of cells was then lysed with 0.1 M sodium hydroxide for 20 minutes at room temperature. The amount of radioactivity contained within the cell culture medium and the cell lysate fractions was measured using a gamma counter. Protein levels from parallel plates were quantified using a Pierce BCA protein assay kit (Thermo Scientific) according to the manufacturer's recommendations and bovine serum albumin was used as the protein standard. Cell uptake levels of [^18F]-olaparib were normalised to percent of the total added radioactivity per milligram protein. […] IC50 values were calculated using GraphPad Prism software (GraphPad Software, San Diego, CA, USA). […]
Aliquots of Panc-1, MiaPaca-2, and Capan-1 cells (7.5×10^4 cells/well) were seeded in 24-well plates in warm cell culture medium (500 μL). […] The amount of radioactivity contained within the cell culture medium and the cell lysate fractions was measured using a gamma counter. […]

Compound: O=C(c1cc(Cc2n[nH]c(=O)c3ccccc23)ccc1F)N1CCN(C(=O)C2CC2)CC1 [Compound 1, 4-(3-(4-(cyclopropanecabonyl)piperazine-1-carbnonyl)-4-fluorobenzyl)phthalazin-1(2H)-one]
- blocking of ^18F-olaparib uptake in vitro (U87MG and U251MG cells): ~70%
- blocking of ^18F-olaparib tumour uptake in vivo [1]: ~75%
- previously reported half-life [2]: 58 min
- blocking of [^18F]olaparib uptake by excess PARP inhibitor (PANC-1 cells): could be blocked

Compound: CNCc1ccc(-c2[nH]c3cc(F)cc4c3c2CCNC4=O)cc1 [rucaparib]
- blocking of [^18F]olaparib uptake by excess PARP inhibitor (PANC-1 cells): could be blocked

Compound: Cn1ncnc1[C@H]1c2n[nH]c(=O)c3cc(F)cc(c23)N[C@@H]1c1ccc(F)cc1 [talazoparib]
- blocking of [^18F]olaparib uptake by excess PARP inhibitor (PANC-1 cells): could be blocked
